Earlier results in EP0374532B1, “Improved phase separation-microencapsulated pharmaceutical compositions useful for alleviating dental disease” (AMERICAN CYANAMID COMPANY, priority 1988, dated 1990).

Settings: human periodontal fluid versus serum

CN(C)c1ccc(O)c2c1C[C@H]1C[C@H]3[C@H](N(C)C)C(O)=C(C(N)=O)C(=O)[C@@]3(O)C(O)=C1C2=O [minocycline, 7-dimethylamino-6-deoxy-6-demethyltetracycline]
levels in human periodontal fluid higher than serum levels: five
